Laboratory results published in ChEMBL document CHEMBL6083259, “Discovery of quinazoline-benzothiazole derivatives as novel potent protease-activated receptor 4 antagonists with improved pharmacokinetics and low bleeding liability” (Eur J Med Chem, 2024).

Tested on: not listed separately
Assay: Toxicity in male C57BL/6 mouse assessed as prolongation of bleeding time at 10 mg/kg, po measured after 1.5 hrs by tail bleeding assay
Format: organism-based
Details: in vivo
In the case of `COC(=O)[C@H](c1ccccc1Cl)N1CCc2sccc2C1` [CLOPIDOGREL], the Activity is reported as “Toxic”.

Target: T1, Proteinase-activated receptor 4 (Homo sapiens) (UniProt Q96RI0)
T1 sequence (whole entry): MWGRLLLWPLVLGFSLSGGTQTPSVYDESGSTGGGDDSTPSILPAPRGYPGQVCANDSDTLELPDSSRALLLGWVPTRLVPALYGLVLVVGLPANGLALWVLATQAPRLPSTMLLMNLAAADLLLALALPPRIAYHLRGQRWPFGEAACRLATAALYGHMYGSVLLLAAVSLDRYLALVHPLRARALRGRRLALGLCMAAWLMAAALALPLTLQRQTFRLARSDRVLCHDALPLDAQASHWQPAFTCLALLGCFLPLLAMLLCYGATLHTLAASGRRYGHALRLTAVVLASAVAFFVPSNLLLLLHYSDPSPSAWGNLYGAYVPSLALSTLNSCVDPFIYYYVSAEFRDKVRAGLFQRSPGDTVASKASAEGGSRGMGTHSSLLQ
Assay: Antagonist activity at PAR4 in human platelet rich plasma assessed as inhibition of gamma-PAR4 agonist peptide (AYPGKF-NH2)-induced platelet aggregation at 200 nM preincubated for 5 mins followed by peptide addition and measured after 5 mins by aggregometer relative to control
Format: cell-based
Details: filed as antagonist, time 10.0 min
With `COc1cc(Cl)c2nc(-c3cc(C)cc4cnc(N(C)C)nc34)sc2c1` the inhibition was 47.6%.
For `COc1ncc2cc(C)cc(-c3nc4cc(F)c(OC)cc4s3)c2n1`, the inhibition was 90.2%.
In the case of `COc1ncc2c(-c3nc4cc(F)c5c(c4s3)C[C@@H](COC(=O)Nc3cc(F)cc(C#N)c3)O5)cc(C)cc2n1`, the inhibition is reported as 65.8%.
Work on `CNc1ncc2c(-c3nc4c(Cl)cc(OC)cc4s3)cc(C)cc2n1` yielded an inhibition of 58.7%.
For `CCOc1ncc2c(-c3nc4c(Cl)cc(OC)cc4s3)cc(C)cc2n1`, the inhibition was 43.4%.
Compound `COc1cc(Cl)c2nc(-c3cc(C)cc4cnc(C)nc34)sc2c1` has an inhibition of 85.7%.
For `COc1ncc2c(-c3nc4ccccc4s3)cc(C)cc2n1`, the inhibition was 49.6%.
Compound `COc1cc(Cl)c2nc(-c3cc(C)cc4cncnc34)sc2c1` has an inhibition of 82.3%.
In the case of `COc1ccc2nc(-c3cc(C)cc4nc(SC)ncc34)sc2c1`, the inhibition is reported as 62.3%.
Work on `COc1ncc2c(-c3nc4cc(F)c(OCCO)cc4s3)cc(C)cc2n1` yielded an inhibition of 84.1%.
In the case of `COc1cc(Cl)c2nc(-c3cc(C)cc4cnc(OC(F)F)nc34)sc2c1`, the inhibition is reported as 74.5%.
Work on `COc1cc(Cl)c2nc(-c3cc(C)cc4cnc(N5CCOCC5)nc34)sc2c1` yielded an inhibition of 52.3%.
`COc1cc(F)c2nc(-c3cc(C)cc4nc(OC)ncc34)sc2c1` gave an inhibition of 78.8%.
In the case of `COc1ncc2c(-c3nc4cc(F)c5c(c4s3)C[C@@H](COC(=O)Nc3ccc(C(=O)N4CCOCC4)cc3)O5)cc(C)cc2n1`, the inhibition is reported as 61.2%.
`COCc1ncc2c(-c3nc4cc(F)c(OCCOC(=O)Nc5cccc(C#N)c5)cc4s3)cc(C)cc2n1` showed an inhibition of 77.1%.
With `COc1ccc2nc(-c3cc(C)cc4nc(OC(C)C)ncc34)sc2c1` the inhibition was 42.9%.
`COc1ccc(NC(=O)OC[C@H]2Cc3c(c(F)cc4nc(-c5cc(C)cc6nc(OC)ncc56)sc34)O2)c(C)c1` showed an inhibition of 55.3%.
In the case of `COc1cc(Cl)c2nc(-c3cc(C)cc4cnc(OC)nc34)sc2c1`, the inhibition is reported as 86.4%.
In the case of `COc1ncc2c(-c3nc4cc(F)c(OC)cc4s3)cc(C)cc2n1`, the inhibition is reported as 88.3%.
In the case of `COc1ncc2c(-c3nc4cc(F)c5c(c4s3)C[C@H](COC(=O)Nc3ccc(C)cc3)O5)cc(C)cc2n1`, the inhibition is reported as 79.6%.
For `CNc1ncc2cc(C)cc(-c3nc4c(Cl)cc(OC)cc4s3)c2n1`, the inhibition was 58.1%.
`COCOc1ncc2c(-c3nc4cc(F)c(OC)cc4s3)cc(C)cc2n1` gave an inhibition of 86.5%.
Work on `COc1cc(OC)c2nc(-c3cc(C)cc4nc(OC)ncc34)sc2c1` yielded an inhibition of 47.8%.
`COc1ncc2c(-c3nc4cc(F)c5c(c4s3)C[C@@H](COC(=O)N3CCOCC3)O5)cc(C)cc2n1` showed an inhibition of 47.6%.
`COc1ncc2c(-c3nc4cc(F)c5c(c4s3)C[C@H](COC(=O)Nc3ccc(OC)c(F)c3)O5)cc(C)cc2n1` gave an inhibition of 59.6%.
In the case of `COc1cc(Cl)c2nc(-c3cc(C)cc4cnc(SC)nc34)sc2c1`, the inhibition is reported as 69.2%.
With `COCOc1ncc2c(-c3nc4c(F)cc(OC)cc4s3)cc(C)cc2n1` the inhibition was 77.4%.
Work on `COc1ccc2nc(-c3cc(C)cc4cnc(OC)nc34)sc2c1` yielded an inhibition of 79.8%.
`COc1cc(Cl)c2nc(-c3cc(C)cc4nc(SC)ncc34)sc2c1` gave an inhibition of 68.2%.
`CCOc1ncc2c(-c3nc4cc(F)c(OC)cc4s3)cc(C)cc2n1` showed an inhibition of 40.4%.
`COc1cc2sc(-c3cc(C)cc4nc(SC)ncc34)nc2cc1F` gave an inhibition of 74.8%.
`COCc1ncc2c(-c3nc4cc(F)c(OCCOC(=O)Nc5ccc(C(=O)N6CCOCC6)cc5)cc4s3)cc(C)cc2n1` showed an inhibition of 67.1%.
`COc1ncc2c(-c3nc4cc(F)c5c(c4s3)C[C@H](COC(=O)N3CCOCC3)O5)cc(C)cc2n1` gave an inhibition of 64.7%.
With `COc1ccc2nc(-c3cc(C)cc4nc(OC)ncc34)sc2c1` the inhibition was 77.4%.
`COCOc1ncc2c(-c3nc4ccc(OC)cc4s3)cc(C)cc2n1` gave an inhibition of 73.9%.
With `COc1cc(Cl)c2nc(-c3cc(C)cc4nc(OC)ncc34)sc2c1` the inhibition was 85.2%.
`COc1ncc2c(-c3nc4cc(F)c5c(c4s3)C[C@H](COC(=O)Nc3ccc(C)cc3F)O5)cc(C)cc2n1` showed an inhibition of 82.7%.
For `COc1cc(F)c2nc(-c3cc(C)cc4cnc(OC)nc34)sc2c1`, the inhibition was 89.6%.
For `COc1ncc2cc(C)cc(-c3nc4c(C)cc5c(c4s3)OCCO5)c2n1`, the inhibition was 65.3%.
`COc1ccc(NC(=O)OC[C@H]2Cc3c(c(F)cc4nc(-c5cc(C)cc6nc(OC)ncc56)sc34)O2)cc1` gave an inhibition of 70.5%.
`COc1cc(C)c2nc(-c3cc(C)cc4nc(OC)ncc34)sc2c1` showed an inhibition of 70.2%.
`COCOc1ncc2c(-c3nc4c(Cl)cc(OC)cc4s3)cc(C)cc2n1` gave an inhibition of 83.8%.

Same assay, conditions: time 10.0 min
`COc1ncc2c(-c3nc4cc(F)c5c(c4s3)C[C@H](COC(=O)Nc3cnc(C)nc3)O5)cc(C)cc2n1` showed an inhibition of 27.5%.
Work on `COc1ccc(NC(=O)OC[C@H]2Cc3c(c(F)cc4nc(-c5cc(C)cc6nc(OC)ncc56)sc34)O2)cn1` yielded an inhibition of 32.9%.
Work on `COc1cc(Cl)c2nc(-c3cc(C)cc4nc(OC(C)C)ncc34)sc2c1` yielded an inhibition of 37.7%.
`COC(=O)OC[C@H]1Cc2c(c(F)cc3nc(-c4cc(C)cc5nc(OC)ncc45)sc23)O1` showed an inhibition of 34.9%.
`COCc1ncc2c(-c3nc4cc(F)c(OCCOC(=O)OC)cc4s3)cc(C)cc2n1` showed an inhibition of 35.3%.
For `CCOc1ncc2c(-c3nc4c(F)cc(OC)cc4s3)cc(C)cc2n1`, the inhibition was 39.1%.
In the case of `COc1cc(Cl)c2nc(-c3cc(C)cc4cnc(OC(C)C)nc34)sc2c1`, the inhibition is reported as 26.3%.
`COc1ncc2cc(C)cc(-c3nc4ccccc4s3)c2n1` showed an inhibition of 29.7%.
With `CCOc1ncc2cc(C)cc(-c3nc4c(Cl)cc(OC)cc4s3)c2n1` the inhibition was 36.7%.
Work on `COc1ncc2cc(C)cc(-c3nc4c(Cl)cc(Cl)cc4s3)c2n1` yielded an inhibition of 34.7%.
With `COc1cc(Cl)c2nc(-c3cc(C)cc4cnc(N5CCCCC5)nc34)sc2c1` the inhibition was 39.5%.
`COCc1ncc2c(-c3nc4cc(F)c(OCCOC(=O)N5CCOCC5)cc4s3)cc(C)cc2n1` showed an inhibition of 34.5%.
In the case of `COc1ncc2c(-c3nc4cc(F)c5c(c4s3)C[C@H](COC(=O)Nc3ccc(C(=O)N4CCOCC4)cc3)O5)cc(C)cc2n1`, the inhibition is reported as 38.1%.
